Laboratory results reported in the supplement of paper PMC5908809.

Experiments:
[1] = system: normal NK cells expanded with K562-aAPC; test: percent inhibition of viability; higher = more inhibition; conditions: 72 h, IL-2 2.5 ng/mL
Method: (§1)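 Drug sensitivity and resistance testing on K562-aAPC-expanded normal NK cells: 5 concentrations (10-fold steps over a 10,000-fold range), 72 h at 37 °C, viability by CellTiter-Glo normalised to DMSO and benzethonium chloride controls; DSS from the fitted curve.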

[2] = system: normal NK cells expanded with K562-aAPC; test: drug sensitivity score (DSS) (DSS units); higher = more sensitive; extreme values may be limits of the assay; conditions: 72 h; IL-2 2.5 ng/mL
Method: as §1

[3] = system: NK-92 (IL-2 2.5 ng/mL); test: percent inhibition of viability; higher = more inhibition; conditions: 72 h
[4] = system: NKL (IL-2 2.5 ng/mL); test: as above; conditions: 72 h
[5] = system: normal primary NK cells, pool 1 (3 donors), resting (IL-2 0 ng/mL); test: as above; conditions: 72 h
[6] = system: normal primary NK cells, pool 3 (3 donors) (IL-2 2.5 ng/mL); test: as above; conditions: 72 h
[7] = system: KAI3 (IL-2 2.5 ng/mL); test: as above; conditions: 72 h
[8] = system: normal primary NK cells, pool 1 (3 donors) (IL-2 2.5 ng/mL); test: as above; conditions: 72 h
[9] = system: SNK-6 (IL-2 2.5 ng/mL); test: as above; conditions: 72 h
[10] = system: KHYG-1 (IL-2 2.5 ng/mL); test: as above; conditions: 72 h
[11] = system: YT (IL-2 2.5 ng/mL); test: as above; conditions: 72 h
[12] = system: DERL-7 (IL-2 2.5 ng/mL); test: as above; conditions: 72 h
[13] = system: IMC-1 (IL-2 20 ng/mL); test: as above; conditions: 72 h
[14] = system: normal primary NK cells, pool 2 (3 donors) (IL-2 2.5 ng/mL); test: as above; conditions: 72 h
[15] = system: NK-YS (IL-2 2.5 ng/mL); test: as above; conditions: 72 h
[16] = system: NK-92 (IL-2 2.5 ng/mL); test: drug sensitivity score (DSS) (DSS units); higher = more sensitive; extreme values may be limits of the assay; conditions: 72 h
[17] = system: NKL (IL-2 2.5 ng/mL); test: as above; conditions: 72 h
[18] = system: normal primary NK cells, pool 1 (3 donors), resting (IL-2 0 ng/mL); test: as above; conditions: 72 h
[19] = system: normal primary NK cells, pool 3 (3 donors) (IL-2 2.5 ng/mL); test: as above; conditions: 72 h
[20] = system: KAI3 (IL-2 2.5 ng/mL); test: as above; conditions: 72 h
[21] = system: normal primary NK cells, pool 1 (3 donors) (IL-2 2.5 ng/mL); test: as above; conditions: 72 h
[22] = system: SNK-6 (IL-2 2.5 ng/mL); test: as above; conditions: 72 h
[23] = system: KHYG-1 (IL-2 2.5 ng/mL); test: as above; conditions: 72 h
[24] = system: YT (IL-2 2.5 ng/mL); test: as above; conditions: 72 h
[25] = system: DERL-7 (IL-2 2.5 ng/mL); test: as above; conditions: 72 h
[26] = system: IMC-1 (IL-2 20 ng/mL); test: as above; conditions: 72 h
[27] = system: normal primary NK cells, pool 2 (3 donors) (IL-2 2.5 ng/mL); test: as above; conditions: 72 h
[28] = system: NK-YS (IL-2 2.5 ng/mL); test: as above; conditions: 72 h

CC(C)[C@H](C(=O)Nc1ccc(C(=O)NO)cc1)c1ccccc1 [AR-42] (max concentration tested 10000 nM)
percent inhibition of viability [%]
Conditions	1 nM	10 nM	100 nM	1000 nM	10000 nM
[1]	5.85	0.8	9.74	87.9	101
[3]	-16.8	-2.43	34.6	104	109
[4]	-5.13	-4.69	35.2	77.5	107
[5]	-9.37	-0.47	13.4	77.4	88.7
[6]	-3.19	-1.6	-0.03	82	98.4
[7]	-2.48	10.7	56.8	93.1	109
[8]	2.55	6.41	6.74	85.7	97.5
[9]	-0.12	1.49	22.2	88.3	101
[10]	-2.7	-4.06	8.15	104	109
[11]	-2.57	0.39	5.64	75.6	108
[12]	-0.01	2.48	-2.69	100	101
[13]	-2.38	-3.46	10.1	92.8	101
[14]	-13.5	-9.96	3.39	82.8	94.9
[15]	-6.36	-5.82	4.66	76.3	108

Conditions	drug sensitivity score
[2]	17.3
[16]	22.9
[17]	18.9
[18]	15.9
[19]	15
[20]	24.6
[21]	16.6
[22]	18.9
[23]	19.4
[24]	14.9
[25]	17.7
[26]	18.3
[27]	15.4
[28]	14.8

CC(C)N(C[C@H]1O[C@@H](n2cnc3c(N)ncnc32)[C@H](O)[C@@H]1O)[C@H]1C[C@@H](CCc2nc3cc(C(C)(C)C)ccc3[nH]2)C1 [EPZ-5676] (max concentration tested 1000 nM)
percent inhibition of viability [%]
Conditions	[3]	[4]	[5]	[7]	[8]	[9]	[10]	[11]	[12]	[15]
0.1 nM	-12.3	0.4	9.51	-1.4	2.06	-2.4	-0.41	-1.48	0.43	-3.52
1 nM	-21.5	-6	20.3	-5	11	4.63	1.41	-5.01	5.23	-3.4
10 nM	-14.1	-2.76	21	-1.28	9.38	8.19	-1.91	-2.34	1.69	2.56
100 nM	5.88	18.4	20.5	5.24	13.4	3.31	7.32	7.03	4.27	4.51
1000 nM	24.7	28.7	23.9	11.9	15.7	35.8	19.1	14.4	-4.86	16.4

Conditions	drug sensitivity score
[16]	1.76
[17]	3.3
[18]	0
[20]	0.23
[21]	1.75
[22]	2.24
[23]	1.32
[24]	0.67
[25]	0
[28]	0.65

Cn1cc(C[C@@H](N)C(=O)O)c2ccccc21 [1-methyl-D-tryptophan] (max concentration tested 5000 nM)
percent inhibition of viability [%]
Conditions	0.5 nM	5 nM	50 nM	500 nM	5000 nM
[1]	-12.1	-7.01	-8.73	0.95	6.01
[6]	-7.11	-12.2	0.9	5.49	5.66
[13]	-6.61	-9.96	-5.67	-2.82	0.08
[14]	-6.45	-5.59	-1.81	4.04	6.29

Conditions	drug sensitivity score
[2]	0
[19]	0
[26]	0
[27]	0

CC(C)NC[C@@H](C(=O)N1CCN(c2ncnc3c2[C@H](C)C[C@H]3O)CC1)c1ccc(Cl)cc1 [GDC-0068] (max concentration tested 10000 nM)
percent inhibition of viability [%]
Conditions	[3]	[4]	[5]	[7]	[8]	[9]	[10]	[11]	[12]	[15]
1 nM	1.45	2.85	10.8	12.9	5.46	-1.73	7.35	10.5	-2.5	7.4
10 nM	-2.57	7.83	1.35	16.7	-2.99	-7.94	8.11	10.4	3.47	4.06
100 nM	7.49	4.25	6.46	21.2	2.75	17.9	10.8	9.38	-3.9	8.96
1000 nM	1.85	3.13	4.26	10.2	4.21	-5.92	8.62	5.43	40.2	7.83
10000 nM	29	17.5	45.6	27.1	24.8	24.9	22.8	17.3	83.9	20.6

Conditions	drug sensitivity score
[16]	1.5
[17]	0.78
[18]	3.04
[20]	0
[21]	1.57
[22]	0.68
[23]	1.8
[24]	0
[25]	9.75
[28]	1.05

COc1cc(Nc2ncc(F)c(Nc3ccc4c(n3)N(COP(=O)(O)O)C(=O)C(C)(C)O4)n2)cc(OC)c1OC [Fostamatinib] (max concentration tested 2500 nM)
percent inhibition of viability [%]
Conditions	0.25 nM	2.5 nM	25 nM	250 nM	2500 nM
[1]	-1.89	-6.48	-4.68	-0.77	45.3
[6]	-14	-12.5	-10.8	-5.58	4.31
[13]	-2.94	-0.51	-4.59	-3.53	-9.62
[14]	-8.88	-12.4	-4.65	-3.71	24.9

Conditions	drug sensitivity score
[2]	2.26
[19]	0
[26]	0.89
[27]	0.74

N[C@@H](Cc1ccc(N(CCCl)CCCl)cc1)C(=O)O [Melphalan] (max concentration tested 12500 nM)
percent inhibition of viability [%]
Conditions	1.25 nM	12.5 nM	125 nM	1250 nM	12500 nM
[1]	-1.69	-2.91	-0.58	0.8	6.31
[6]	-7.72	-2.35	-4.09	0.34	3.45
[13]	-3.81	-2.31	-1.39	0.63	0.47
[14]	-5.43	-5.03	-6.41	7.99	1.1

Conditions	drug sensitivity score
[2]	0
[19]	0
[26]	0
[27]	0

CC(C)NC[C@@H](C(=O)N1CCN(c2ncnc3c2[C@H](C)C[C@H]3O)CC1)c1ccc(Cl)cc1 [Ipatasertib] (max concentration tested 10000 nM)
percent inhibition of viability [%]
Conditions	1 nM	10 nM	100 nM	1000 nM	10000 nM
[1]	4.44	5.94	6.06	17.9	39.6
[6]	5.55	1.78	8.02	9.98	29.5
[13]	0.54	2.26	1.36	0.96	9.26
[14]	-8.24	-4.37	0.07	8.84	36

Conditions	drug sensitivity score
[2]	3.79
[19]	2.08
[26]	0
[27]	3.09

CN(C)C(=N)NC(=N)N [Metformin] (max concentration tested 100000 nM)
percent inhibition of viability [%]
Conditions	10 nM	100 nM	1000 nM	10000 nM	100000 nM
[1]	-6.08	-6.07	-1.23	6.39	2.64
[6]	-3.35	0.87	5.02	0.46	8.34
[13]	-3.89	-0.13	-3.1	-1.36	5.51
[14]	-3.45	0.32	10.6	8.75	12.4

Conditions	drug sensitivity score
[2]	0
[19]	0
[26]	0
[27]	1.13

CC(C)N(C[C@H]1O[C@@H](n2cnc3c(N)ncnc32)[C@H](O)[C@@H]1O)[C@H]1C[C@@H](CCc2nc3cc(C(C)(C)C)ccc3[nH]2)C1 [Pinometostat] (max concentration tested 1000 nM)
percent inhibition of viability [%]
Conditions	0.1 nM	1 nM	10 nM	100 nM	1000 nM
[1]	-0.7	-1.47	-2.36	3.36	12.5
[6]	-1.26	13	2.22	1.46	-1.92
[13]	-9.34	-4.07	-2.87	-4.72	3.86
[14]	-6.45	6.92	6.49	-0.47	0.82

Conditions	drug sensitivity score
[2]	0.26
[19]	0
[26]	0
[27]	0
